This is an account of results in PubChem BioAssay (NCI).

Some test systems named below: SK-MEL-28 melanoma; UO-31 renal; SF-268 CNS; BT-549 breast; SF-295 CNS; OVCAR-3 ovarian; U251 CNS; CCRF-CEM leukemia; NCI-H522 lung; RXF 393 renal.
Assay in all cases: growth of human tumour cells (NCI), 48 h

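Where inhibition never reached the appropriate level, the endpoint shown equals the highest concentration tested. Otherwise, values were interpolated linearly from a five-concentration, 48-hour dose response in 96-well plates. GI50 marks 50% less growth. Definition used: TGI = concentration required for complete inhibition of growth.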

As for `O=C1OCC2=C1C(c1ccccc1)c1cc3c(cc1N2CCO)OCCO3` (stereo not given), the GI50 in the assay on SK-MEL-28 melanoma is 8.24 µM; with UO-31 renal, 0.3 µM; with SF-268 CNS it was 0.617 µM; with BT-549 breast it was 0.465 µM; in the assay with SF-295 CNS it was 0.183 µM; in the assay with OVCAR-3 ovarian, 0.132 µM. Also, the GI50 was 0.279 µM with U251 CNS, 0.276 µM with CCRF-CEM leukemia and 0.0593 µM with NCI-H522 lung. For the same molecule, the TGI in the assay with SK-MEL-28 melanoma was over 50 µM; in the assay on UO-31 renal, over 35.3 µM; in the assay on SF-268 CNS, over 35.3 µM; with BT-549 breast, over 13.7 µM; in the assay with OVCAR-3 ovarian, 0.312 µM; in the assay on U251 CNS, over 50 µM. Besides, the results for the TGI with CCRF-CEM leukemia and in the assay on NCI-H522 lung were over 50 µM and 0.165 µM, respectively.

`COc1cc2c3c(n(C)c(=O)c2cc1OC)-c1cc2c(cc1/C3=C\CCNCCCN)OCO2`: the GI50 is 2.87 µM in the assay with SK-MEL-28 melanoma; 42.5 µM with UO-31 renal; 2.43 µM with SF-268 CNS; 4.65 µM in the assay on BT-549 breast; 1.06 µM in the assay with RXF 393 renal; 0.47 µM with U251 CNS. Moreover, the GI50 in the assay with CCRF-CEM leukemia is 0.686 µM; with NCI-H522 lung, 1.67 µM. In addition, the TGI in the assay on SK-MEL-28 melanoma was 91.8 µM; in the assay on UO-31 renal, over 100 µM; with SF-268 CNS, 11.8 µM; with BT-549 breast, 21.1 µM; in the assay with RXF 393 renal it was 14.5 µM; in the assay with U251 CNS it was 3.44 µM. Besides, the TGI with CCRF-CEM leukemia was determined as 13.4 µM; with NCI-H522 lung, 25.5 µM.

Consider `CCN(CC)c1ccc(/C=C/C=C2\NC(=O)NC2=O)cc1`, for which the GI50 with SK-MEL-28 melanoma was 27.1 µM; in the assay with UO-31 renal it was 7.97 µM; in the assay with SF-268 CNS it was 8.51 µM; with BT-549 breast it was 1.53 µM; with RXF 393 renal it was 1.03 µM; in the assay on SF-295 CNS, 1.54 µM. The figures for the GI50 in the assay with OVCAR-3 ovarian, with U251 CNS and in the assay with NCI-H522 lung were 1.95 µM, 3.22 µM and 0.92 µM, respectively. Further, the TGI in the assay on SK-MEL-28 melanoma is over 100 µM; in the assay on UO-31 renal, over 100 µM; with SF-268 CNS, over 100 µM; in the assay with BT-549 breast, 40.8 µM; in the assay on RXF 393 renal it was 5.93 µM; in the assay with SF-295 CNS it was over 100 µM. For the same molecule, the values for the TGI with OVCAR-3 ovarian, in the assay with U251 CNS and in the assay with NCI-H522 lung were 5.29 µM, 17.9 µM and 4.11 µM, respectively.

On to `O=C1C(Cl)=C(Nc2cccc(C(F)(F)F)c2)C(=O)N1Cc1ccc(Cl)cc1`, for which the GI50 in the assay with SK-MEL-28 melanoma is 3.95 µM; in the assay on UO-31 renal, 1.11 µM; in the assay with SF-268 CNS, 0.312 µM; in the assay with BT-549 breast, 0.154 µM; with OVCAR-3 ovarian it was 0.16 µM; in the assay on U251 CNS, 0.0371 µM. Further, the GI50 is 0.59 µM in the assay on CCRF-CEM leukemia and 2.11 µM in the assay on NCI-H522 lung. Besides, the TGI was 23.6 µM in the assay with SK-MEL-28 melanoma; 33.8 µM in the assay with UO-31 renal; 14.8 µM in the assay on SF-268 CNS; 20.3 µM with BT-549 breast; 16.2 µM with SF-295 CNS; 5.76 µM with OVCAR-3 ovarian. Moreover, the values for the TGI in the assay with U251 CNS, in the assay on CCRF-CEM leukemia and in the assay on NCI-H522 lung were 13.1 µM, over 100 µM and 25.2 µM, respectively.

Regarding `Oc1ccc(Cc2cc(Cl)cc(Cl)c2O)cc1Cl`, the TGI in the assay on SK-MEL-28 melanoma was 32.9 µM; in the assay on UO-31 renal it was 31 µM; in the assay on SF-268 CNS, 31 µM; in the assay on BT-549 breast it was 33.4 µM; with RXF 393 renal, 28.8 µM; in the assay on SF-295 CNS, 39.6 µM. The figures for the TGI with OVCAR-3 ovarian, in the assay on U251 CNS and in the assay on NCI-H522 lung were 36.6 µM, 36.2 µM and 31.6 µM, respectively.

`NC(=S)NN=C1CSSC1`: the GI50 in the assay on SK-MEL-28 melanoma is 4.67 µM; with UO-31 renal, 1.83 µM; with SF-268 CNS, 3.61 µM; in the assay on BT-549 breast, 3.37 µM; in the assay on RXF 393 renal it was 1.45 µM; with OVCAR-3 ovarian it was 2.54 µM. In addition, the results for the GI50 in the assay with U251 CNS, in the assay with CCRF-CEM leukemia and in the assay with NCI-H522 lung were 3.66 µM, 3.77 µM and 2.95 µM, respectively. Besides, the TGI in the assay with SK-MEL-28 melanoma is 25.9 µM; with UO-31 renal, 20.1 µM; in the assay on SF-268 CNS, 13.8 µM; in the assay on BT-549 breast, 10.1 µM; in the assay with RXF 393 renal, 5.58 µM; in the assay with OVCAR-3 ovarian, 10.5 µM. Besides, the figures for the TGI in the assay with U251 CNS, in the assay with CCRF-CEM leukemia and with NCI-H522 lung were 23.1 µM, over 100 µM and 15.4 µM, respectively.

As to `COc1ccc2ccc3oc([N+](=O)[O-])cc3c2c1`, the GI50 with SK-MEL-28 melanoma is 0.202 µM; with SF-268 CNS, 0.201 µM; in the assay on BT-549 breast it was 0.194 µM; with RXF 393 renal, 0.141 µM; with SF-295 CNS it was 0.251 µM; with OVCAR-3 ovarian it was 0.255 µM. The GI50 in the assay on U251 CNS was 0.277 µM; in the assay on CCRF-CEM leukemia, 0.193 µM; with NCI-H522 lung it was 0.169 µM. The TGI in the assay on SK-MEL-28 melanoma was determined as 0.54 µM; in the assay on SF-268 CNS it was 1.69 µM; with BT-549 breast, 0.606 µM; with RXF 393 renal, 0.316 µM; in the assay with SF-295 CNS it was 3.22 µM; with OVCAR-3 ovarian it was 0.754 µM. Further, the TGI in the assay on U251 CNS is 5.37 µM; in the assay on CCRF-CEM leukemia, 10.6 µM; in the assay with NCI-H522 lung, 0.563 µM.

With `COc1ccccc1C(=O)N(C)c1ccc(Cl)c(C(=O)OC(C)C)c1`, the TGI with SK-MEL-28 melanoma was over 100 µM; with UO-31 renal, over 100 µM; with SF-268 CNS it was over 100 µM; in the assay on BT-549 breast it was 97.7 µM; with SF-295 CNS it was 94.5 µM; with OVCAR-3 ovarian, over 100 µM. Moreover, the TGI in the assay on U251 CNS, in the assay with CCRF-CEM leukemia and with NCI-H522 lung was over 100 µM throughout.

For the molecule `CCSc1ccc(C2C(Br)C(=O)N2c2cc(OC)c(OC)c(OC)c2)cc1` (stereo not given), the GI50 was 1.94 µM in the assay with SK-MEL-28 melanoma; 0.342 µM with UO-31 renal; 1.18 µM with SF-268 CNS; 0.525 µM with BT-549 breast; 0.087 µM with SF-295 CNS; 0.109 µM in the assay on OVCAR-3 ovarian. The values for the GI50 in the assay on U251 CNS, with CCRF-CEM leukemia and in the assay with NCI-H522 lung were 0.345 µM, 0.278 µM and 0.158 µM, respectively. Moreover, the TGI in the assay with SK-MEL-28 melanoma was 30 µM; in the assay on UO-31 renal, 15.5 µM; in the assay on SF-268 CNS, 52.7 µM; in the assay on BT-549 breast, 11.8 µM; with SF-295 CNS, over 100 µM; in the assay with OVCAR-3 ovarian, 0.73 µM. The TGI in the assay on U251 CNS is 39.8 µM; with CCRF-CEM leukemia, 18.2 µM; in the assay with NCI-H522 lung, 4.19 µM.
